Measured values reported in patent publication US20190127366A1 (LifeSci Pharmaceuticals, Inc., priority 2015, published 2019).

Target: T1, human complement factor D (Homo sapiens, UniProt P00746)
T1 construct: purchased R&D Systems 1824-SE
Assay: In vitro enzyme inhibition (Z-Lys-SBzl/DTNB absorbance assay)
Type: biochemical
Conditions: Complement Factor D (R&D Systems), substrate Z-Lys-SBzl, A405 nm; read-out: CFD IC50
Procedure, shortened: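 Factor D (6.25 ng/μL before addition) preincubated 5 min RT with compound (8 points from 50 μM, 6-fold, 0.5% DMSO final) in 50 mM Tris/HCl pH 7.5, 1 M NaCl, then Z-Lys-SBzl/DTNB added (200 μM each before addition). A405 read kinetically every 30 s for 60 min; IC50 from variable-slope fit, controls with and without enzyme.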

T1 sequence (P00746 26-253): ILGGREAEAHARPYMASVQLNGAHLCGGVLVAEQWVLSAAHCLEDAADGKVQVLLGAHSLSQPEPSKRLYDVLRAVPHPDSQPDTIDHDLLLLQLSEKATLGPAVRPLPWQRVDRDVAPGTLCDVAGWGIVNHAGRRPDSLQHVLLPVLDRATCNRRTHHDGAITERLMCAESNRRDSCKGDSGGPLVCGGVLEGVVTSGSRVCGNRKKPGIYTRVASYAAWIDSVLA

Structure (SMILES) | IC50
NC(=O)c1nn(CC(=O)N2[C@H](C(=O)O)C[C@H]2C(=O)NCc2cccc(Cl)c2F)c2ccccc12 (relative stereo) [Example 195, trans-1-(2-(3-carbamoyl-1H-indazol-1-yl)acetyl)-4-((3-chloro-2-fluorobenzyl)carbamoyl)azetidine-2-carboxylic acid] | 1 to 10 µM
CC(=O)N1CCN(C(=O)Cn2nc(C(N)=O)c3ccccc32)[C@H](C(=O)Nc2cccc(Cl)n2)C1 [Example 27, (S)-1-(2-(4-acetyl-2-((6-chloropyridin-2-yl)carbamoyl)piperazin-1-yl)-2-oxoethyl)-1H-indazole-3-carboxamide] | 1 to 10 µM
COc1cc(Cl)nc(NC(=O)[C@@H]2[C@H]3CC[C@H](C3)N2C(=O)Cn2nc(C(N)=O)c3ccccc32)c1 [Example 97, 1-(2-((1R,3S,4S)-3-((6-chloro-4-methoxypyridin-2-yl)carbamoyl)-2-azabicyclo[2.2.1]heptan-2-yl)-2-oxoethyl)-1H-indazole-3-carboxamide] | 0.1 to 1 µM
NC(=O)c1nn(CC(=O)N2[C@@H]3CCC(C3)[C@H]2C(=O)Nc2cccc(Cl)n2)c2ccc(Cl)cc12 [Example 12, 5-chloro-1-(2-((1R,3S)-3-((6-chloropyridin-2-yl)carbamoyl)-2-azabicyclo[2.2.1]heptan-2-yl)-2-oxoethyl)-1H-indazole-3-carboxamide] | 1 to 10 µM
NC(=O)c1nn(CC(=O)N2[C@H]3CC[C@H]([C@H](O)C3)[C@@H]2C(=O)NCc2cccc(Cl)c2F)c2ccccc12 [Example 153, (1S,3R,4S,5R)-2-(2-(3-carbamoyl-1H-indazol-1-yl)acetyl)-N-(3-chloro-2-fluorobenzyl)-5-hydroxy-2-azabicyclo[2.2.2]octane-3-carboxamide] | > 10 µM
CC(=O)c1nn(CC(=O)N2[C@@H]3CC[C@@H](C3)[C@H]2C(=O)Nc2cccc(Cl)n2)c2ccc(Cl)cc12 [Example 87, (1R,3S,4S)-2-(2-(3-acetyl-5-chloro-1H-indazol-1-yl)acetyl)-N-(6-chloropyridin-2-yl)-2-azabicyclo[2.2.1]heptane-3-carboxamide] | 0.1 to 1 µM
CC(=O)N1CCCN(C(=O)Cn2nc(C(N)=O)c3ccccc32)C(C(=O)NCc2cccc(Cl)c2F)C1 (stereo not drawn) [Example 34, 1-(2-(4-acetyl-2-((3-chloro-2-fluorobenzyl)carbamoyl)-1,4-diazepan-1-yl)-2-oxoethyl)-1H-indazole-3-carboxamide] | > 10 µM
NC(=O)c1nn(CC(=O)N2CCOC[C@H]2C(=O)Nc2cccc(Cl)n2)c2ccccc12 [Example 22, (S)-4-(2-(3-carbamoyl-1H-indazol-1-yl)acetyl)-N-(6-chloropyridin-2-yl)morpholine-3-carboxamide] | 1 to 10 µM
COC(=O)Cc1ccc2c(c1)c(C(N)=O)nn2CC(=O)N1[C@@H]2CC[C@@H](C2)[C@H]1C(=O)NCc1cccc(Cl)c1F [Example 130, methyl 2-(3-carbamoyl-1-(2-((1R,3S,4S)-3-((3-chloro-2-fluorobenzyl)carbamoyl)-2-azabicyclo[2.2.1]heptan-2-yl)-2-oxoethyl)-1H-indazol-5-yl)acetate] | 0.1 to 1 µM
NC(=O)c1nn(CC(=O)N2[C@@H]3CC[C@@H](C3)[C@H]2C(=O)Nc2cccc(Cl)n2)c2ccncc12 [Example 95, 1-(2-((1R,3S,4S)-3-((6-chloropyridin-2-yl)carbamoyl)-2-azabicyclo[2.2.1]heptan-2-yl)-2-oxoethyl)-1H-pyrazolo[4,3-c]pyridine-3-carboxamide] | 0.1 to 1 µM
NC(=O)c1nc(CC(=O)N2CC[C@H]2C(=O)NCc2cccc(Cl)c2F)n2ccccc12 [Example 191, (S)-3-(2-(2-((3-chloro-2-fluorobenzyl)carbamoyl)azetidin-1-yl)-2-oxoethyl)imidazo[1,5-a]pyridine-1-carboxamide] | 0.1 to 1 µM
NC(=O)c1nn(CC(=O)N2[C@H](C(N)=O)C[C@H]2C(=O)NCc2cccc(Cl)c2F)c2ccccc12 (relative stereo) [Example 196, trans-1-(2-(3-carbamoyl-1H-indazol-1-yl)acetyl)-N2-(3-chloro-2-fluorobenzyl)azetidine-2,4-dicarboxamide] | 1 to 10 µM
N#Cc1cc(Cl)nc(NC(=O)[C@@H]2[C@H]3CC[C@H](C3)N2C(=O)Cn2nc(C(N)=O)c3ccccc32)c1 [Example 102, 1-(2-((1R,3S,4S)-3-((6-chloro-4-cyanopyridin-2-yl)carbamoyl)-2-azabicyclo[2.2.1]heptan-2-yl)-2-oxoethyl)-1H-indazole-3-carboxamide] | 0.1 to 1 µM
CC(=O)c1nn(CC(=O)N2[C@H](C(=O)Nc3cccc(Cl)n3)C[C@@H]3CCC[C@@H]32)c2ccc(F)cc12 [Example 183, (2S,3aS,6aS)-1-(2-(3-acetyl-5-fluoro-1H-indazol-1-yl)acetyl)-N-(6-chloropyridin-2-yl)octahydrocyclopenta[b]pyrrole-2-carboxamide] | 1 to 10 µM
NCC(NC(=O)[C@@H]1[C@H]2CC[C@H](C2)N1C(=O)Cn1nc(C(N)=O)c2ccccc21)c1cccc(Cl)c1F (stereo partly drawn) [Example 140, 1-(2-((1R,3S,4S)-3-((2-amino-1-(3-chloro-2-fluorophenyl)ethyl)carbamoyl)-2-azabicyclo[2.2.1]heptan-2-yl)-2-oxoethyl)-1H-indazole-3-carboxamide] | > 10 µM
NC(=O)c1nn(CC(=O)N2[C@@H]3CC[C@@H](C3)[C@H]2C(=O)Nc2cccc(-c3ccccc3Cl)n2)c2ccccc12 [Example 44, 1-(2-((1R,3S,4S)-3-((6-(2-chlorophenyl)pyridin-2-yl)carbamoyl)-2-azabicyclo[2.2.1]heptan-2-yl)-2-oxoethyl)-1H-indazole-3-carboxamide] | 0.1 to 1 µM
N#Cc1ccc(Cl)c(F)c1CNC(=O)[C@@H]1[C@H]2CC[C@H](C2)N1C(=O)Cn1nc(C(N)=O)c2ccccc21 [Example 119, 1-(2-((1R,3S,4S)-3-((3-chloro-6-cyano-2-fluorobenzyl)carbamoyl)-2-azabicyclo[2.2.1]heptan-2-yl)-2-oxoethyl)-1H-indazole-3-carboxamide] | 1 to 10 µM
CC(C)=C(F)C(C)NC(=O)[C@@H]1[C@H]2CC[C@H](C2)N1C(=O)Cn1nc(C(N)=O)c2ccccc21 (stereo partly drawn) [Example 135, 1-(2-((1R,3S,4S)-3-((3-fluoro-4-methylpent-3-en-2-yl)carbamoyl)-2-azabicyclo[2.2.1]heptan-2-yl)-2-oxoethyl)-1H-indazole-3-carboxamide] | > 10 µM
NC(=O)c1nn(CC(=O)N2[C@H]3CC[C@H](CC3)[C@@H]2C(=O)NCc2cccc(Cl)c2F)c2ccccc12 [Example 148, (1S,3R,4S)-2-(2-(3-carbamoyl-1H-indazol-1-yl)acetyl)-N-(3-chloro-2-fluorobenzyl)-2-azabicyclo[2.2.2]octane-3-carboxamide] | 1 to 10 µM
N#Cc1cccc(NC(=O)[C@@H]2[C@H]3CC[C@H](C3)N2C(=O)Cn2nc(C(N)=O)c3ccccc32)n1 [Example 49, 1-(2-((1R,3S,4S)-3-((6-cyanopyridin-2-yl)carbamoyl)-2-azabicyclo[2.2.1]heptan-2-yl)-2-oxoethyl)-1H-indazole-3-carboxamide] | 1 to 10 µM
NC(=O)c1nn(CC(=O)N2CCOC[C@H]2C(=O)Nc2cccc(Br)n2)c2ccccc12 [Example 24, (S)-N-(6-bromopyridin-2-yl)-4-(2-(3-carbamoyl-1H-indazol-1-yl)acetyl)morpholine-3-carboxamide] | 1 to 10 µM
